48 compounds from US6506936B1, “N-substituted arylsulfonylamino hydroxamic acids useful as inhibitors of c-proteinase and for treating or preventing disorders related to unregulated collagen production” (FibroGen, Inc., priority 1999, dated 2003) can be followed below.

Structures are written as SMILES.

As a reminder, the IC50 is the point on the concentration scale where inhibition reaches its midpoint.

The first series has as its system human foreskin fibroblasts. In words: Cytotoxicity: metabolic activity (WST-1) of quiescent fibroblasts exposed to inhibitor. Type of series: cell-based. Particulars: 25 μM compound, 0.5% DMSO, 48 hours, 60% or below = very sick or dead. The procedure:
C-proteinase inhibitors were studied in cytotoxicity assays wherein quiescent cells were exposed to C-proteinase inhibitors for a given time and cell viability measured. By examining cellular metabolic activity, cell viability and cell survival were determined.
C-proteinase inhibitors were tested on human foreskin fibroblasts that had been grown to confluence in 96 well microtiter plates in Dulbecco's Modified Eagle Medium (DMEM) containing 10% fetal calf serum. Shortly before adding the inhibitors, the media was removed and 90 μl per microtiter well of fresh serum-free DMEM was added to the cells. The C-proteinase inhibitors were made up as concentrated stocks containing compound at 250 μM in the presence of 5% DMSO as solvent. A concentrated stock of 10 μl was added to each microtiter well to give a final compound concentration of 25 μM in the presence of 0.5% DMSO. The cells were incubated in the presence of the C-proteinase inhibitor for 48 hours, and then cell viability and survival were measured as a function of metabolic activity. To examine cellular metabolic activity, 10 μl of WST-1 reagent (Boehringer Mannheim) was added to each well of a 96 well microtiter plate containing quiescent cells that were already in media. The plate was incubated at 37° C. for 120 minutes and removed. The absorbance at 450 nm-650 nm was recorded. […] Controls included untreated healthy cells, and cells killed with 0.1% saponin.
Cytotoxicity was evaluated as a function of cellular survival. Cellular survival was determined by measuring the metabolic activity of the quiescent cells after exposure to the C-proteinase inhibitors. To determine the metabolic activity of the cells, the color change of a trazolium dye over time was examined according to Mossmann, […], Immunol. Methods 65:66; Carmichael, 1987, Cancer Res 47:936, incorporated herein by reference. Healthy cells cleaved the dye producing a colored product that can be quantitated. […] Dead cells had no metabolic activity and no effect on the dye was shown.
The amount of dye cleaved by cells that had been incubated with inhibitor, expressed as a percentage relative to untreated cells, is shown in TABLE 2. Cells that register at 60% or below are considered either very sick or dead. Control cells that were intentionally killed give a value of close to 20%.
Background: Tetrazolium assays rely on reduction of a dye to a coloured formazan, in cell work by metabolically active cells.
With `O=C(CCN(CCc1cccs1)S(=O)(=O)c1cccs1)NO` [Compound 1425], the “Percent Metabolic Activity of Fibroblasts Exposed To Various C-Proteinase Inhibitors Relative to Untreated Fibroblasts” value is 109.5%. The same measure, in the same setting: the figure for `CCCCOc1ccc(S(=O)(=O)N(CCC(=O)NO)CCc2cccs2)cc1` [Compound 1416] is 92.8%; for `O=C(CCN(Cc1ccc2c(c1)OCO2)S(=O)(=O)c1cccs1)NO` [Compound 1371] it is 114.4%; for `CCCCOc1ccc(S(=O)(=O)N(CCC(=O)NO)Cc2ccc3c(c2)OCO3)cc1` [Compound 1372] it is 109.2%.

As to `O=C(CCN(Cc1ccc2c(c1)OCO2)S(=O)(=O)c1ccc(S(=O)(=O)c2ccccc2)s1)NO` [Compound 1361], the “Percent Metabolic Activity of Fibroblasts Exposed To Various C-Proteinase Inhibitors Relative to Untreated Fibroblasts” value is listed as 103.4%. `N/C(=N\O)c1cccc(S(=O)(=O)N(CCC(=O)NO)Cc2ccc3c(c2)OCO3)c1` [Compound 1458]: the “Percent Metabolic Activity of Fibroblasts Exposed To Various C-Proteinase Inhibitors Relative to Untreated Fibroblasts” value is reported as 111.0%. The same measure, in the same setting: the figure for `CC(=O)Nc1ccc(S(=O)(=O)N(CCC(=O)NO)CCc2cccs2)cc1` [Compound 1411] is 108.2%; for `N/C(=N\O)c1cccc(S(=O)(=O)N(CCC(=O)NO)CCc2cccs2)c1` [Compound 1457] it is 107.4%. On the same count and under the same terms, then `COc1ccc(S(=O)(=O)N(CCC(=O)NO)CC2COc3ccccc3O2)cc1` (stereo not shown) [Compound 1374], with 117.6%; and `CC(=O)Nc1ccc(S(=O)(=O)N(CCC(=O)NO)Cc2ccc3c(c2)OCO3)cc1` [Compound 1357], with 108.1%. The same measure, in the same setting: then `O=C(CCN(CCc1cccs1)S(=O)(=O)c1ccc(Br)s1)NO` [Compound 1417], with 120.3%; and `CCCCCCCCS(=O)(=O)N(CCC(=O)NO)Cc1ccc2c(c1)OCO2` [Compound 1359], with 101.1%.

The next series concerns the target T1, recombinant human C-proteinase (Homo sapiens, UniProt P13497).
T1 sequence (P13497 121-986): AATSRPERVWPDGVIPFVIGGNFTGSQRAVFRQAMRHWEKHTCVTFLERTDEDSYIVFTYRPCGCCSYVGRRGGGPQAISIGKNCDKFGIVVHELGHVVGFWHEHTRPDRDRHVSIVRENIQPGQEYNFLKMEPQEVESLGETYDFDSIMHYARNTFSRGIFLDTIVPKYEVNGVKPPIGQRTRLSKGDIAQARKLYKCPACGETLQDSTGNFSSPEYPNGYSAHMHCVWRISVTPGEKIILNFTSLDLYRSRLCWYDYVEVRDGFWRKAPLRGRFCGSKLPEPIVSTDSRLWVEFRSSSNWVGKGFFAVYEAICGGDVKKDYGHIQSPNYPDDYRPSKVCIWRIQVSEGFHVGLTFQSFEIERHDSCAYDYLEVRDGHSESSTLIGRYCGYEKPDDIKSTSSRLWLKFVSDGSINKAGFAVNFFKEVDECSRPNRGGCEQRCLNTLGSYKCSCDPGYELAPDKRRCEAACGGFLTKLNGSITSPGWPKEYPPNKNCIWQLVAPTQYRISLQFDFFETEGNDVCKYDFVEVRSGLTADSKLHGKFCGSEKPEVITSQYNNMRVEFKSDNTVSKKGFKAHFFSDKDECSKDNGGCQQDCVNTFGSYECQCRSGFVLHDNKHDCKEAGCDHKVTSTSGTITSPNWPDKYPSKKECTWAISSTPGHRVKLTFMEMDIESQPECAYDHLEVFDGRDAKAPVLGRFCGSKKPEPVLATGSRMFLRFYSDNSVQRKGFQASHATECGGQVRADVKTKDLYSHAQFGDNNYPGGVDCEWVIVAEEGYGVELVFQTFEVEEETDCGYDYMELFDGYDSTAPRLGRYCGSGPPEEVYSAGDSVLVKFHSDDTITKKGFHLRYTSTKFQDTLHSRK
The experiment in a line: C-proteinase IC50 assay with fluorogenic peptide. Type of series: biochemical.
Conditions: not given
The procedure: The reaction was started with the addition of 20 μl of the recombinant human C-proteinase mix. The reaction proceeded for 4 hours at 37° C. and the fluorescence was measured using a Bio-Tek Fl-600.
With `COc1ccc(S(=O)(=O)N(CCC(=O)NO)CCc2ccccn2)cc1` [compound 1132], the IC50 was determined as 8 µM.

The same series, now with this note: IC50 (μM) Of Various C-Proteinase Inhibitors.
In the case of `COc1ccc(S(=O)(=O)N(CCC(=O)NO)CCN2CCOCC2)cc1` [compound 1131], the IC50 is 80.5 µM. Consider `COc1ccc(CCN(CCC(=O)NO)S(=O)(=O)c2cccc(/C(N)=N/O)c2)cc1` [compound 1456], for which the half-maximal inhibitory concentration (IC50) was found to be 0.4 µM. In the case of `COc1ccc(S(=O)(=O)N(CCC(=O)NO)Cc2ccccc2)cc1` [compound 121], the half-maximal inhibitory concentration (IC50) worked out at 9 µM.

With `COc1ccc(S(=O)(=O)N(CCc2ccccc2)CC(=O)NO)cc1` [compound 128], the IC50 came out at 15.3 µM.

For `COc1ccc(S(=O)(=O)N(CCC(=O)NO)c2ccccc2)cc1` [compound 124], the IC50 worked out at 2 µM. Same read-out and setting: then `COc1ccc(N(CCC(=O)NO)S(=O)(=O)c2ccc(OC)cc2)cc1` [compound 208], with 1.68 µM.

The same series, now with this note: IC50 of Cpase.
In the case of `COc1ccc(N(CCC(=O)NO)S(=O)(=O)c2ccc(OC)cc2)cc1` [compound 208], the IC50 stood at 1.68 µM.

Still in this series, the particulars now being: recombinant human C-proteinase, 50 μM fluorogenic peptide, 4 hours at 37° C.; read-out: IC50 (μM) Of Various C-Proteinase Inhibitors.
Consider `COc1ccc(S(=O)(=O)N(CCC(=O)NO)Cc2ccc3c(c2)OCO3)cc1OC` [compound 1410], for which the IC50 was found to be 1.77 µM. In the case of `O=C(CCN(CCc1ccccc1)S(=O)(=O)c1ccc([N+](=O)[O-])cc1)NO` [compound 1268], the IC50 is 3.03 µM. Still for that read-out and setting: then `N/C(=N\O)c1ccc(S(=O)(=O)N(CCC(=O)NO)Cc2ccc3c(c2)OCO3)cc1` [compound 1369], with 0.23 µM; and `CC(=O)Nc1ccc(S(=O)(=O)N(CCC(=O)NO)Cc2ccc3c(c2)OCO3)cc1` [compound 1357], with 0.55 µM. On the same count and under the same terms, then `N/C(=N\O)c1cccc(S(=O)(=O)N(CCC(=O)NO)Cc2ccc3c(c2)OCO3)c1` [compound 1458], with 0.25 µM; and `O=C(CCN(Cc1ccc2c(c1)OCO2)S(=O)(=O)c1cccc2nsnc12)NO` [compound 1362], with 1.51 µM; and `CS(=O)(=O)c1ccc(S(=O)(=O)N(CCC(=O)NO)Cc2ccc3c(c2)OCO3)cc1` [compound 1464], with 0.35 µM. Still for that read-out and setting: then `CS(=O)(=O)c1ccc(S(=O)(=O)N(CCC(=O)NO)CCc2cccs2)cc1` [compound 1463], with 0.7 µM; and `O=C(CCN(Cc1ccc2c(c1)OCO2)S(=O)(=O)c1ccc(Br)s1)NO` [compound 1367], with 1.47 µM. With `O=C(CCN(CCc1cccs1)S(=O)(=O)c1ccc(S(=O)(=O)c2ccccc2)s1)NO` [compound 1419], the half-maximal inhibitory concentration (IC50) was 3.95 µM. Still for that read-out and setting: then `COc1ccc(S(=O)(=O)N(CCC(=O)NO)Cc2ccc3c(c2)OCO3)cc1` [compound 1273], with 0.63 µM. For `COc1ccc(S(=O)(=O)N(CCC(=O)NO)CCc2ccc(Cl)cc2)cc1` [compound 1300], the IC50 came to 2.43 µM. Same read-out and setting: the figure for `CCCCOc1ccc(S(=O)(=O)N(CCC(=O)NO)CCc2cccs2)cc1` [compound 1416] is 0.82 µM; for `COc1ccc(S(=O)(=O)N(CCC(=O)NO)Cc2ccc(Cl)cc2)cc1` [compound 1237] it is 3.57 µM. In the case of `COc1ccccc1CCN(CCC(=O)NO)S(=O)(=O)c1ccc(C(=O)O)cc1` [compound 1405], the IC50 is 1.46 µM. Same read-out and setting: the figure for `COc1ccc(CCN(CCC(=O)NO)S(=O)(=O)c2cccc(N)c2)cc1` [compound 1492] is 0.32 µM. Same read-out and setting: then `O=C(CCN(CCc1cccs1)S(=O)(=O)c1cccs1)NO` [compound 1425], with 1.32 µM. Still for that read-out and setting: then `CC(=O)Nc1ccc(S(=O)(=O)N(CCC(=O)NO)CCc2cccs2)cc1` [compound 1411], with 0.39 µM; and `O=C(CCN(Cc1ccc2c(c1)OCO2)S(=O)(=O)c1cccs1)NO` [compound 1371], with 0.91 µM; and `N/C(=N\O)c1ccc(S(=O)(=O)N(CCC(=O)NO)CCc2cccs2)cc1` [compound 1409], with 0.18 µM. As for `O=C(CCN(Cc1ccc2c(c1)OCO2)S(=O)(=O)c1ccc(S(=O)(=O)c2ccccc2)s1)NO` [compound 1361], the IC50 came out at 0.88 µM. Still for that read-out and setting: the figure for `COc1ccc(CCN(CC(=O)NO)S(=O)(=O)c2ccc(OC)cc2)cc1` [compound 204] is 22.1 µM; for `O=C(CCN(CCc1cccs1)S(=O)(=O)c1ccc(Br)s1)NO` [compound 1417] it is 1.67 µM; for `N/C(=N\O)c1cccc(S(=O)(=O)N(CCC(=O)NO)CCc2cccs2)c1` [compound 1457] it is 0.84 µM. The same measure, in the same setting: the figure for `COc1ccc(S(=O)(=O)N(CCC(=O)NO)C2C3CC4CC(C3)CC2C4)cc1` (stereo not shown) [compound 1335] is 36.5 µM. With `O=C(CCN(CCc1ccccc1)S(=O)(=O)c1cccs1)NO` [compound 1270], the IC50 came out at 1.21 µM. The same measure, in the same setting: then `O=C(CCN(CCc1cccs1)S(=O)(=O)Cc1ccccc1)NO` [compound 1414], with 3.5 µM. The same measure, in the same setting: then `CCCCOc1ccc(S(=O)(=O)N(CCC(=O)NO)Cc2ccc3c(c2)OCO3)cc1` [compound 1372], with 1.7 µM; and `COc1ccc(CCN(CCC(=O)NO)S(=O)(=O)c2ccc(-c3nnn[nH]3)cc2)cc1` [compound 1496], with 0.25 µM.
